Reference: paper PMC6272893, “NO-Releasing Enmein-Type Diterpenoid Derivatives with Selective Antiproliferative Activity and Effects on Apoptosis-Related Proteins” (Molecules, 2016)
Read-outs that look alike come from different tables or passages of the source.

Key:
[1] = test system: L-02 normal liver cells; assay: MTT antiproliferative assay, L-02; format: cell-based; conditions: for IC50: 72 h, read-out: antiproliferative activity IC50, L-02
Procedure: [The source words this procedure for another cell line and reports this cell line under the same test.] (§1) Cytotoxicity assay in vitro was employed by the MTT assay following the methodology described previously, which was performed in flat-bottomed 96-well plates. In short, exponentially growing MGC-803 cells at the log phase were added to each well at a density of 5 × 10^3 per well, then treated with serial dilutions of the compounds in three replicates at various concentrations (0.039–40 µg/mL). After 72 h, 20 µL of MTT solution (5 mg/mL) per well was added to each cultured medium. Then, DMSO was added to each well (150 µL/well). After 10 min at room temperature, the absorbance (OD) was read on a microplate reader at the wavelength of 490 nm (BIO-RAD Instruments Inc. 550, Hercules, CA, USA). In these experiments, taxol was used as the positive reference with the concentration of 10 µg/mL.

[2] = test system: Bel-7402 cells; assay: MTT antiproliferative assay, Bel-7402; format: cell-based, human; conditions: Homo sapiens, Bel-7402; MTT, 72 h, mean ± S.D. of three experiments
Procedure: [The source words this procedure for another cell line and reports this cell line under the same test.] as §1

[3] = test system: K562 cells; assay: MTT antiproliferative assay, K562; format: cell-based, human; conditions: Homo sapiens, K562; MTT, 72 h, mean ± S.D. of three experiments
Procedure: [The source words this procedure for another cell line and reports this cell line under the same test.] as §1

[4] = test system: MGC-803 cells; assay: MTT antiproliferative assay, MGC-803; format: cell-based, human; conditions: Homo sapiens, MGC-803; MTT, 72 h, mean ± S.D. of three experiments
Procedure: as §1

[5] = test system: CaEs-17 cells; assay: MTT antiproliferative assay, CaEs-17; format: cell-based, human; conditions: Homo sapiens, CaEs17; MTT, 72 h, mean ± S.D. of three experiments
Procedure: [The source words this procedure for another cell line and reports this cell line under the same test.] as §1

[6] = MTT, mean ± S.D. of three experiments

Compound | IC50 [1, 6] [µM] | IC50 [2] [µM] | IC50 [3] [µM] | IC50 [4] [µM] | IC50 [5] [µM] | IC50 [1] [µM] | SI (selectivity index) ([1]; selectivity between tumor and normal liver cells)
O=C(O)CCCC(=O)OCCCCOc1no[n+]([O-])c1S(=O)(=O)c1ccccc1 [Compound 7h] | 35.4 ± 1.4 | 21.3 ± 0.7 | 24.5 ± 1.4 | 23.5 ± 1 | 22.9 ± 1.4 |  | 
C=C1C(=O)C23C(=O)OC4CCC(C)(C)C5C(=O)OCC45C2CCC1C3OC(=O)CCC(=O)OCCCCOc1no[n+]([O-])c1S(=O)(=O)c1ccccc1 (centres unmarked) [Compound 10g] | 33.9 ± 1.5 | 1.85 ± 0.11 | 2.82 ± 0.22 | 2.8 ± 0.09 | 5.52 ± 0.08 |  | 
C=C1C(=O)C23C(=O)OC4CCC(C)(C)C5C(=O)OCC45C2CCC1C3OC(=O)CCCC(=O)OCCCOc1no[n+]([O-])c1S(=O)(=O)c1ccccc1 (centres unmarked) [Compound 10e] | 29.3 ± 0.9 | 1.12 ± 0.09 | 2.02 ± 0.17 | 1.91 ± 0.09 | 4.04 ± 0.23 |  | 
C=C1C(=O)C23C(=O)OC4CCC(C)(C)C5C(=O)OCC45C2CCC1C3OC(=O)c1ccccc1C(=O)OCCOc1no[n+]([O-])c1S(=O)(=O)c1ccccc1 (centres unmarked) [Compound 10c] | 31.2 ± 1.2 | 1.01 ± 0.04 | 1.97 ± 0.18 | 1.6 ± 0.15 | 4.02 ± 0.14 |  | 
CC(=O)O[C@H]1C(=O)[C@@]2(C)[C@H]([C@H](OC(=O)c3ccccc3)[C@]3(O)C[C@H](OC(=O)[C@H](O)[C@@H](NC(=O)c4ccccc4)c4ccccc4)C(C)=C1C3(C)C)[C@]1(OC(C)=O)CO[C@@H]1C[C@@H]2O [Taxol, reference compound] | 3.73 ± 0.17 | 1.89 ± 0.09 | 0.41 ± 0.02 | 4.65 ± 0.29 | 0.43 ± 0.03 |  | 
O=C(O)CCC(=O)OCCOc1no[n+]([O-])c1S(=O)(=O)c1ccccc1 [Compound 7a] | 37.8 ± 1.3 | 22 ± 0.8 | 22.6 ± 2 | 25.4 ± 1.5 | 24.3 ± 0.9 |  | 
O=C(O)CCCC(=O)OCCCOc1no[n+]([O-])c1S(=O)(=O)c1ccccc1 [Compound 7e] | 36.3 ± 2.1 | 18.6 ± 0.8 | 18.5 ± 1.6 | 20 ± 1.1 | 18.7 ± 1 |  | 
O=C(O)c1ccccc1C(=O)OCCOc1no[n+]([O-])c1S(=O)(=O)c1ccccc1 [Compound 7c] | 41.3 ± 2.9 | 19.6 ± 1 | 22.6 ± 1.7 | 24.6 ± 1.4 | 23.8 ± 1 |  | 
C=C1C(=O)C23C(=O)OC4CCC(C)(C)C5C(=O)OCC45C2CCC1C3O (centres unmarked) [Compound 9] |  | 16 ± 1.1 | 2.64 ± 0.19 | 5.84 ± 0.57 | 23.7 ± 1.8 | 26.4 ± 1.3 | 
C=C1C(=O)C23C(=O)OC4CCC(C)(C)C5C(=O)OCC45C2CCC1C3OC(=O)CCCC(=O)OCCCCOc1no[n+]([O-])c1S(=O)(=O)c1ccccc1 (centres unmarked) [Compound 10h] | 29.8 ± 0.9 | 1.65 ± 0.12 | 2.78 ± 0.2 | 2.65 ± 0.16 | 5.48 ± 0.21 |  | 
O=C(O)CCCC(=O)OCCOc1no[n+]([O-])c1S(=O)(=O)c1ccccc1 [Compound 7b] | 39.6 ± 1.4 | 22.3 ± 1.6 | 24.2 ± 2.5 | 22.2 ± 2.5 | 25.7 ± 1.4 |  | 
C=C1C(=O)C23C(=O)OC4CCC(C)(C)C5C(=O)OCC45C2CCC1C3OC(=O)CCCC(=O)OCCOc1no[n+]([O-])c1S(=O)(=O)c1ccccc1 (centres unmarked) [Compound 10b] | 22.1 ± 1.3 | 1.75 ± 0.12 | 2.9 ± 0.17 | 2.67 ± 0.24 | 5.56 ± 0.06 |  | 
O=C(O)CCC(=O)OCCCOc1no[n+]([O-])c1S(=O)(=O)c1ccccc1 [Compound 7d] | 37.4 ± 0.8 | 17.8 ± 1.4 | 17.5 ± 1.4 | 18.5 ± 0.8 | 19.8 ± 1.3 |  | 
O=C(O)c1ccccc1C(=O)OCCCCOc1no[n+]([O-])c1S(=O)(=O)c1ccccc1 [Compound 7i] | 37.9 ± 2.8 | 22.4 ± 1.6 | 23 ± 1.2 | 21.6 ± 1.5 | 24.8 ± 1.5 |  | 
C=C1C(=O)[C@]23[C@H](O)[C@H]1CC[C@H]2[C@@]12CO[C@]3(O)[C@@H](O)[C@@H]1C(C)(C)CC[C@@H]2O [Compound 1, oridonin, reference compound] | 18.3 ± 0.8 | 7.48 ± 0.32 | 4.76 ± 0.32 | 5.69 ± 0.39 | 11 ± 1 |  | about 2.4
O=C(O)CCC(=O)OCCCCOc1no[n+]([O-])c1S(=O)(=O)c1ccccc1 [Compound 7g] | 39.4 ± 2.6 | 22.7 ± 1 | 24 ± 1.4 | 20.6 ± 1.7 | 25.7 ± 0.7 |  | 
O=C(O)c1ccccc1C(=O)OCCCOc1no[n+]([O-])c1S(=O)(=O)c1ccccc1 [Compound 7f] | 35.8 ± 1.3 | 16.7 ± 0.8 | 17.5 ± 1 | 19.3 ± 0.6 | 19.2 ± 0.7 |  | 
C=C1C(=O)C23C(=O)OC4CCC(C)(C)C5C(=O)OCC45C2CCC1C3OC(=O)c1ccccc1C(=O)OCCCCOc1no[n+]([O-])c1S(=O)(=O)c1ccccc1 (centres unmarked) [Compound 10i] | 27.7 ± 1.3 | 1.09 ± 0.09 | 2.06 ± 0.16 | 1.64 ± 0.12 | 4.13 ± 0.29 |  | 
C=C1C(=O)C23C(=O)OC4CCC(C)(C)C5C(=O)OCC45C2CCC1C3OC(=O)CCC(=O)OCCCOc1no[n+]([O-])c1S(=O)(=O)c1ccccc1 (centres unmarked) [Compound 10d] | 27.4 ± 1 | 1.17 ± 0.02 | 2.04 ± 0.1 | 2.03 ± 0.15 | 4.84 ± 0.47 |  | 
C=C1C(=O)C23C(=O)OC4CCC(C)(C)C5C(=O)OCC45C2CCC1C3OC(=O)CCC(=O)OCCOc1no[n+]([O-])c1S(=O)(=O)c1ccccc1 (centres unmarked) [Compound 10a] | 24.4 ± 0.8 | 1.91 ± 0.09 | 2.86 ± 0.05 | 2.84 ± 1.12 | 5.68 ± 0.53 |  | 
